Laboratory results from US9328099B2, “Cyanomethylpyrazole carboxamides as janus kinase inhibitors” (Merck Sharp & Dohme Corp., priority 2011, dated 2016).

Experiments:
JAK1 = JAK1 (Homo sapiens (Human), UniProt P23458); experiment: Jak Biochemical HTRF Assay, JAK1; conditions: HTRF biochemical assay, GST-tagged catalytic domain; top concentration tested […]; read-out: JAK1 IC50
From the text: (§1) Jak Biochemical HTRF Assay Protocol
(§2) Subsequent reagent additions employed an Agilent Bravo.

JAK2 = JAK2 (Homo sapiens (Human), UniProt O60674); experiment: Jak Biochemical HTRF Assay, JAK2; conditions: HTRF biochemical assay, GST-tagged catalytic domain; top concentration tested […]
From the text: as §1, §2

JAK1, sequence (P23458 875-1153): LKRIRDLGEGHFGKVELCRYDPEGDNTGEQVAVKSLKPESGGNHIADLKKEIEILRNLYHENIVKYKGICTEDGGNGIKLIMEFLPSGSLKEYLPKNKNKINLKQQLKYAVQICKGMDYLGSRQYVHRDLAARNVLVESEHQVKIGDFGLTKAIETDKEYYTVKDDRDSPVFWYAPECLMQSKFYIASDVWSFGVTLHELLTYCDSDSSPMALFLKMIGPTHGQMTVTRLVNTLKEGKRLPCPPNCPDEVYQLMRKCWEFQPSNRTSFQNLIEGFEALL
JAK2, sequence (O60674 849-1124): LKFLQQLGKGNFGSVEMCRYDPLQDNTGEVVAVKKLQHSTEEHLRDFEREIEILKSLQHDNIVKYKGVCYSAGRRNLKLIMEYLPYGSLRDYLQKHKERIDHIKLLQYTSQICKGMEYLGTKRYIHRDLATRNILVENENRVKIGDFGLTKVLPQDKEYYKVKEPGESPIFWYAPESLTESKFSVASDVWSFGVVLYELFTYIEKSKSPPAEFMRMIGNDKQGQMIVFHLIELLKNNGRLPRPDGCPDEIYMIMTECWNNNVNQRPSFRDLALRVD

Compound | IC50 (JAK1) [nM] | IC50 (JAK2) [nM]
N#CCC1(n2cc(C(N)=O)c(Nc3ccc(S(=O)(=O)C(F)F)cc3)n2)CCC(NCC(F)(F)F)CC1 (stereo not drawn) [Example 40-89, Cis or trans 1-{1-(cyanomethyl)-4-[(2,2,2-trifluoroethyl)amino]cyclohexyl}-3-({4-[(difluoromethyl)sulfonyl]phenyl}amino)-1H-pyrazole-4-carboxamide] | 13 | 466
CC(C)(C(=O)N1CCC(CC#N)(n2cc(C(N)=O)c(Nc3ccnc(F)c3)n2)CC1)C(F)(F)F [Example 34-55, 1-[4-(cyanomethyl)-1-(3,3,3-trifluoro-2,2-dimethylpropanoyl)piperidin-4-yl]-3-[(2-fluoropyridin-4-yl)amino]-1H-pyrazole-4-carboxamide] | 1 | 28
CC(C)(O)CC(=O)N1CCC(CC#N)(n2cc(C(N)=O)c(Nc3ccnc(F)c3)n2)CC1 [Example 34-50, 1-[4-(cyanomethyl)-1-(3-hydroxy-3-methylbutanoyl)piperidin-4-yl]-3-[(2-fluoropyridin-4-yl)amino]-1H pyrazole-4-carboxamide] | 0.2 | 8
CC(F)(F)C(=O)N1CCC(CC#N)(n2cc(C(N)=O)c(Nc3ccnc(F)c3)n2)CC1 [Example 34-40, 1-[4-(cyanomethyl)-1-(2,2-difluoropropanoyl)piperidin-4-yl]-3 [(2-fluoropyridin-4-yl)amino]-1H-pyrazole-4-carboxamide] | 0.1 | 2
CNC(=O)c1cn(C2(CC#N)CCN(C(=O)OC(C)(C)C)CC2)nc1Nc1ccccc1 [Example 1, tert-Butyl 4-(cyanomethyl)-4-[4-(methylcarbamoyl)-3-(phenylamino)-1H-pyrazol-1-yl]piperidine-1-carboxylate] | 67 | 1480
CC(C)(C)OC(=O)N1CCC(CC#N)(n2cc(C(N)=O)c(Nc3ccnc(F)c3)n2)CC1 [Example 9-1, tert-Butyl 4-{4-carbamoyl-3-[(2-fluoropyridin-4-yl)amino]-1H-pyrazol-1-yl}-4-(cyanomethyl)piperidine-1-carboxylate] | 0.2 | 5
N#CCC1(n2cc(C(N)=O)c(Nc3ccnc(F)c3)n2)CCN(Cc2cnccn2)CC1 [Example 22-14, 1-[4-(cyanomethyl)-1-(pyrazin-2-ylmethyl)piperidin-4-yl]-3-[(2-fluoropyridin-4-yl)amino]-1H-pyrazole-4-carboxamide] | 0.6 | 28
CC(C)(C)OC(=O)N1CCC(CC#N)(n2cc(C(N)=O)c(Nc3ccncc3)n2)CC1 [Example 2-7, tert-butyl 4-[4-carbamoyl-3-(pyridin-4-ylamino)-1H-pyrazol-1-yl]-4-(cyanomethyl)piperidine-1-carboxylate] | 0.3 | 10
N#CCC1(n2cc(C(N)=O)c(Nc3ccc(S(=O)(=O)C(F)F)cc3)n2)CCC(N2CCC(O)CC2)CC1 (stereo not drawn) [Example 40-43, Cis or trans 1-[1-(cyanomethyl)-4-(4-hydroxypiperidin-1-yl)cyclohexyl]-3-({4-[(difluoromethyl)sulfonyl]phenyl}amino)-1H-pyrazole-4-carboxamide] | 0.3 | 14
COCCCOC(=O)N1CC(CC#N)(n2cc(C(N)=O)c(Nc3ccccc3)n2)C1 [Example 30-61, 3-methoxypropyl 3-[4-carbamoyl-3-(phenylamino)-1H-pyrazol-1-yl]-3-(cyanomethyl)azetidine-1-carboxylate] | 37 | 603
N#CCC1(n2cc(C(N)=O)c(Nc3ccnc(F)c3)n2)CCC(NCc2ccccc2C#N)CC1 (stereo not drawn) [Example 41-27, Cis or trans 1-{4-[(2-cyanobenzyl)amino]-1-(cyanomethyl)cyclohexyl}-3-[(2-fluoropyridin-4-yl)amino]-1H-pyrazole-4-carboxamide] | 307 | > 1500

Continued, values first:

IC50 (JAK1) [nM] | IC50 (JAK2) [nM] | Compound
161 | 1480 | CC(C)(C)OC(=O)N1CCC(CC#N)(n2cc(C(N)=O)c(Nc3cccc(-c4cccc(Cl)c4)c3)n2)CC1 [Example 15-8, tert-butyl 4-{4-carbamoyl-3-[(3′-chlorobiphenyl-3-yl)amino]-1H-pyrazol-1-yl}-4-(cyanomethyl)piperidine-1-carboxylate]
7 | 111 | Cc1ccc(C)c(NC(=O)N2CC(CC#N)(n3cc(C(N)=O)c(Nc4ccccc4)n3)C2)c1 [Example 38-16, 1-{3-(cyanomethyl)-1-[(2,5-dimethylphenyl)carbamoyl]azetidin-3-yl}-3-(phenylamino)-1H-pyrazole-4-carboxamide]
2 | 40 | N#CCC1(n2cc(C(N)=O)c(Nc3ccccc3)n2)CCN(C(=O)OCc2ccccc2F)CC1 [Example 30-33, 2-fluorobenzyl 4-[4-carbamoyl-3-(phenylamino)-1H-pyrazol-1-yl]-4-(cyanomethyl)piperidine-1-carboxylate]
2 | 96 | CC(C)(CO)OC(=O)N1CCC(CC#N)(n2cc(C(N)=O)c(Nc3ccc(F)cc3)n2)CC1 [Example 29, 1-Hydroxy-2-methylpropan-2-yl 4-{4-carbamoyl-3-[(4-fluorophenyl)amino]-1H-pyrazol-1-yl}-4-(cyanomethyl)piperidine-1-carboxylate]
171 | > 1500 | N#CCC1(n2cc(C(N)=O)c(Nc3ccc(F)cc3)n2)CCC(N2CCc3ccccc32)CC1 (stereo not drawn) [Example 40-21, Cis or trans 1-[1-(cyanomethyl)-4-(2,3-dihydro-1H-indol-1-yl)cyclohexyl]-3-[(4-fluorophenyl)amino]-1H-pyrazole-4-carboxamide]
4 | 105 | CC(c1ccccc1)N1CCC(CC#N)(n2cc(C(N)=O)c(Nc3ccc(F)cc3)n2)CC1 (stereo not drawn) [Example 23, 1-(4-(Cyanomethyl)-1-(1-phenylethyl)piperidin-4-yl)-3-((4-fluorophenyl)amino)-1H-pyrazole-4-carboxamide]
0.5 | 23 | N#CCC1(n2cc(C(N)=O)c(Nc3cccc(Cn4nnc5ccccc54)c3)n2)CCN(C(=O)OCC(F)(F)F)CC1 [Example 4-4, 2,2,2-trifluoroethyl 4-(3-{[3-(1H-benzotriazol-1-ylmethyl)phenyl]amino}-4-carbamoyl-1H-pyrazol-1-yl)-4-(cyanomethyl)piperidine-1-carboxylate]
2 | 59 | CC(C)NC(=O)N1CCC(CC#N)(n2cc(C(N)=O)c(Nc3ccccc3)n2)CC1 [Example 38-46, 4-[4-Carbamoyl-3-(phenylamino)-1H-pyrazol-1-yl]-4-(cyanomethyl)-N-(1-methylethyl)piperidine-1-carboxamide]
3 | 68 | N#CCC1(n2cc(C(N)=O)c(Nc3ccccc3)n2)CN(C(=O)Nc2cccc(F)c2)C1 [Example 38-1, 1-{3-(Cyanomethyl)-1-[(3-fluorophenyl)carbamoyl]azetidin-3-yl}-3-(phenylamino)-1H pyrazole-4-carboxamide]
44 | 248 | N#CCC1(n2cc(C(N)=O)c(Nc3ccccc3)n2)CCN(C(=O)CO)CC1 [Example 34-35, 1-[4-(cyanomethyl)-1-(hydroxyacetyl)piperidin-4-yl]-3-(phenylamino)-1H-pyrazole-4-carboxamide]
